From ChEMBL document CHEMBL2073936, “A novel human hepatic organic anion transporting polypeptide (OATP2). Identification of a liver-specific human organic anion transporting polypeptide and identification of rat and human hydroxymethylglutaryl-CoA reductase inhibitor transporters” (J Biol Chem, 1999)

What was measured:
Assay type in all cases: functional, cell-based
[1] = target: T1, Solute carrier organic anion transporter family member 1B1 (Homo sapiens, UniProt Q9Y6L6); assay: TP_TRANSPORTER: inhibition of Pravastatin uptake (Pravastatin: 0.5 uM, BMS243887: 50 uM) in OATP-C-expressing 293c18 cells; details: hek293-ebna
T1 sequence (Q9Y6L6 whole entry): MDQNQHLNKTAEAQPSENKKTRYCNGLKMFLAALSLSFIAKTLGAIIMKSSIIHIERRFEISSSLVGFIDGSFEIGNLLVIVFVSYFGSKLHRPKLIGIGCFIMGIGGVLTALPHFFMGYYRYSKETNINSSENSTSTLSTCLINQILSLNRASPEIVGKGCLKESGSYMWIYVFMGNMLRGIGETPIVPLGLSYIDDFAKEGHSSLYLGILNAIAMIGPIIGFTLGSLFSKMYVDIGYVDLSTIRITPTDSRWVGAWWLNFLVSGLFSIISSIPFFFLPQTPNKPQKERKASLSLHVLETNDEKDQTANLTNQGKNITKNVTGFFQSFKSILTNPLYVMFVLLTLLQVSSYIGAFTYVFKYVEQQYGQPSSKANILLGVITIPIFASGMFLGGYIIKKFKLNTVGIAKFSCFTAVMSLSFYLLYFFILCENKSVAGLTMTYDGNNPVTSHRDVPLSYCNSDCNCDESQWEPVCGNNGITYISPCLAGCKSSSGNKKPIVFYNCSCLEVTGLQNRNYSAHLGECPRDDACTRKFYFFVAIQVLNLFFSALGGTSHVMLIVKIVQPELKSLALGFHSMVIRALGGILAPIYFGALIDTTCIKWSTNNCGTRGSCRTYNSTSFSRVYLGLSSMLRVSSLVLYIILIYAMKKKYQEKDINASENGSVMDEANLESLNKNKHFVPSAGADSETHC

[2] = target: T1, Solute carrier organic anion transporter family member 1B1; assay: TP_TRANSPORTER: inhibition of Taurocholate uptake (Taurocholate: 0.5 uM, BMS243887: 50 uM) in OATP-C-expressing 293c18 cells; details: hek293-ebna
[3] = target: T2, Solute carrier organic anion transporter family member 1A1 (Rattus norvegicus, UniProt P46720); assay: TP_TRANSPORTER: inhibition of Pravastatin uptake (Pravastatin: 0.5 uM, BMS243887: 50 uM) in Oatp1-expressing 293c18 cells; details: human, hek293-ebna
T2 sequence (P46720 whole entry): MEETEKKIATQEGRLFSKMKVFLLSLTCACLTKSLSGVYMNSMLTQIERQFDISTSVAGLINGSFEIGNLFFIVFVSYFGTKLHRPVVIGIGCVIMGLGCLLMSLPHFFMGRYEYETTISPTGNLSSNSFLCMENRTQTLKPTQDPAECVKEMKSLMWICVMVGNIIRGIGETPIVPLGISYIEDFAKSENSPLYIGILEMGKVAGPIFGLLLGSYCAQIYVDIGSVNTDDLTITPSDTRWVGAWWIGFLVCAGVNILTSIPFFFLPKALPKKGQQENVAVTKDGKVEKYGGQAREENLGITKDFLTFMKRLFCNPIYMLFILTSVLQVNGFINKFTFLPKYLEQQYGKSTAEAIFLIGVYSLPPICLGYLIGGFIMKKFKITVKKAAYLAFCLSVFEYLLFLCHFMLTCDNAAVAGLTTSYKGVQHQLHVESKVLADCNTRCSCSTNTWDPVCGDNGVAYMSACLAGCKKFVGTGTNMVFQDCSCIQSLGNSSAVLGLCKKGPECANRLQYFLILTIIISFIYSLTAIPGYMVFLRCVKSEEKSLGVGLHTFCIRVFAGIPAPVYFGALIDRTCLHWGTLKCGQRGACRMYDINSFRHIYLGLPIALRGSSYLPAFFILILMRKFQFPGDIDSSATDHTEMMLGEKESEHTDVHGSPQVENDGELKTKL

[4] = target: T2, Solute carrier organic anion transporter family member 1A1; assay: TP_TRANSPORTER: inhibition of Taurocholate uptake (Taurocholate: 0.5 uM, BMS243887: 50 uM) in Oatp1-expressing 293c18 cells; details: human, hek293-ebna
[5] = target: T2, Solute carrier organic anion transporter family member 1A1; assay: TP_TRANSPORTER: inhibition of Pravastatin uptake (Pravastatin: 0.5 uM, Atorvastatin: 50 uM) in Oatp1-expressing 293c18 cells; details: human, hek293-ebna
[6] = target: T1, Solute carrier organic anion transporter family member 1B1; assay: TP_TRANSPORTER: inhibition of Pravastatin uptake (Pravastatin: 0.5 uM, Atorvastatin: 50 uM) in OATP-C-expressing 293c18 cells; details: hek293-ebna
[7] = target: T1, Solute carrier organic anion transporter family member 1B1; assay: TP_TRANSPORTER: inhibition of Taurocholate uptake (Taurocholate: 0.5 uM, Atorvastatin: 50 uM) in OATP-C-expressing 293c18 cells; details: hek293-ebna
[8] = target: T2, Solute carrier organic anion transporter family member 1A1; assay: TP_TRANSPORTER: inhibition of Taurocholate uptake (Taurocholate: 0.5 uM, Atorvastatin: 50 uM) in Oatp1-expressing 293c18 cells; details: human, hek293-ebna
[9] = target: T1, Solute carrier organic anion transporter family member 1B1; assay: TP_TRANSPORTER: inhibition of Pravastatin uptake (Pravastatin: 0.5 uM, BMS241423: 50 uM) in OATP-C-expressing 293c18 cells; details: hek293-ebna
[10] = target: T2, Solute carrier organic anion transporter family member 1A1; assay: TP_TRANSPORTER: inhibition of Taurocholate uptake (Taurocholate: 0.5 uM, BMS241423: 50 uM) in Oatp1-expressing 293c18 cells; details: human, hek293-ebna
[11] = target: T1, Solute carrier organic anion transporter family member 1B1; assay: TP_TRANSPORTER: inhibition of Taurocholate uptake (Taurocholate: 0.5 uM, BMS241423: 50 uM) in OATP-C-expressing 293c18 cells; details: hek293-ebna
[12] = target: T2, Solute carrier organic anion transporter family member 1A1; assay: TP_TRANSPORTER: inhibition of Pravastatin uptake (Pravastatin: 0.5 uM, BMS241423: 50 uM) in Oatp1-expressing 293c18 cells; details: human, hek293-ebna
[13] = target: T1, Solute carrier organic anion transporter family member 1B1; assay: TP_TRANSPORTER: inhibition of Taurocholate uptake (Taurocholate: 0.5 uM, Lovastatin: 50 uM) in OATP-C-expressing 293c18 cells; details: hek293-ebna
[14] = target: T1, Solute carrier organic anion transporter family member 1B1; assay: TP_TRANSPORTER: inhibition of Pravastatin uptake (Pravastatin: 0.5 uM, Lovastatin: 50 uM) in OATP-C-expressing 293c18 cells; details: hek293-ebna
[15] = target: T2, Solute carrier organic anion transporter family member 1A1; assay: TP_TRANSPORTER: inhibition of Pravastatin uptake (Pravastatin: 0.5 uM, Lovastatin: 50 uM) in Oatp1-expressing 293c18 cells; details: human, hek293-ebna
[16] = target: T2, Solute carrier organic anion transporter family member 1A1; assay: TP_TRANSPORTER: inhibition of Taurocholate uptake (Taurocholate: 0.5 uM, Lovastatin: 50 uM) in Oatp1-expressing 293c18 cells; details: human, hek293-ebna
[17] = target: T1, Solute carrier organic anion transporter family member 1B1; assay: TP_TRANSPORTER: uptake in OATP-C-expressing 293c18 cells; details: hek293-ebna
[18] = target: T2, Solute carrier organic anion transporter family member 1A1; assay: TP_TRANSPORTER: inhibition of Pravastatin uptake (Pravastatin: 0.5 uM, DHEAS: 50 uM) in Oatp1-expressing 293c18 cells; details: human, hek293-ebna
[19] = target: T2, Solute carrier organic anion transporter family member 1A1; assay: TP_TRANSPORTER: inhibition of Taurocholate uptake (Taurocholate: 0.5 uM, DHEAS: 50 uM) in Oatp1-expressing 293c18 cells; details: human, hek293-ebna
[20] = target: T3, Solute carrier organic anion transporter family member 1A4 (Rattus norvegicus, UniProt O35913); assay: TP_TRANSPORTER: uptake in Oatp2-expressing 293c18 cells; details: human, hek293-ebna
T3 sequence (O35913 whole entry): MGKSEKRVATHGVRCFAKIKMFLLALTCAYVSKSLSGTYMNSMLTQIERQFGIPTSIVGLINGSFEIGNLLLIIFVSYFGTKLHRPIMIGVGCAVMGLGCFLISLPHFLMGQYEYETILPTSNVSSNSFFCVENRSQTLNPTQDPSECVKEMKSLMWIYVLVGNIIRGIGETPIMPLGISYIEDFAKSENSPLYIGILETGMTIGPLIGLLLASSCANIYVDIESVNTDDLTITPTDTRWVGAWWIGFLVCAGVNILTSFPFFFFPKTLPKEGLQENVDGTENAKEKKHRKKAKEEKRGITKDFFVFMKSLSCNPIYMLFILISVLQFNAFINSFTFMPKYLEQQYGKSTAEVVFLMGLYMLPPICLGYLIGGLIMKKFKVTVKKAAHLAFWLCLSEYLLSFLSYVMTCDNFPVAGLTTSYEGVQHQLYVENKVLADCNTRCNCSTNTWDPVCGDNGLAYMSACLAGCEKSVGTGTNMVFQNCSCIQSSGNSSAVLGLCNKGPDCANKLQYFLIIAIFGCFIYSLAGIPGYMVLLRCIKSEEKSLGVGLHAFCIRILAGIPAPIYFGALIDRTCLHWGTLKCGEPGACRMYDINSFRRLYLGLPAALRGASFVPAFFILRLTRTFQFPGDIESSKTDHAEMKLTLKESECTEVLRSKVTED

[21] = target: T2, Solute carrier organic anion transporter family member 1A1; assay: TP_TRANSPORTER: inhibition of Taurocholate uptake (Taurocholate: 0.5 uM, Pravastatin: 50 uM) in Oatp1-expressing 293c18 cells; details: human, hek293-ebna
[22] = target: T4, Solute carrier organic anion transporter family member 1A2 (Homo sapiens, UniProt P46721); assay: TP_TRANSPORTER: uptake in OATP-A-expressing 293c18 cell; details: hek293-ebna
T4 sequence (P46721 whole entry): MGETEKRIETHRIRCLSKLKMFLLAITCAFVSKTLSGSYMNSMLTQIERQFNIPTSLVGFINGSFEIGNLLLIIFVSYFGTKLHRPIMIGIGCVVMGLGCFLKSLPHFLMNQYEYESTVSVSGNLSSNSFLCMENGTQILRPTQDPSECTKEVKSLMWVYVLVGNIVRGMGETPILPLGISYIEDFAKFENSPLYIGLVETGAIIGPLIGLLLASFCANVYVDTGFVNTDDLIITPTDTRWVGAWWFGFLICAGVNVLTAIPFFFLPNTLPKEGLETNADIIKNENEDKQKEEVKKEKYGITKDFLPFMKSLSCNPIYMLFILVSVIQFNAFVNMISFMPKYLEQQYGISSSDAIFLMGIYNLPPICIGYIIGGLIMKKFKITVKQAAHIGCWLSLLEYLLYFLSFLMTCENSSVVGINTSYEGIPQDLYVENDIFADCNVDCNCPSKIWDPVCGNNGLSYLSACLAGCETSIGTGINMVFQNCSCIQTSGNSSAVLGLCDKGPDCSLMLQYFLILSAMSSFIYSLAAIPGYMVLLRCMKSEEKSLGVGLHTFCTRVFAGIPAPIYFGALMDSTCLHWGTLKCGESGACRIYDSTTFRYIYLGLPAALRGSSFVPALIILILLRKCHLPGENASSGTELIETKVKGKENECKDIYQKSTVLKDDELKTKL

[23] = target: T2, Solute carrier organic anion transporter family member 1A1; assay: TP_TRANSPORTER: inhibition of Pravastatin uptake (Pravastatin: 0.5 uM, Simvastatin: 50 uM) in Oatp1-expressing 293c18 cells; details: human, hek293-ebna
[24] = target: T2, Solute carrier organic anion transporter family member 1A1; assay: TP_TRANSPORTER: inhibition of Taurocholate uptake (Taurocholate: 0.5 uM, Simvastatin: 50 uM) in Oatp1-expressing 293c18 cells; details: human, hek293-ebna

CC(C)c1c(C(=O)Nc2ccccc2O)c(-c2ccccc2)c(-c2ccc(F)cc2)n1CC[C@@H](O)C[C@@H](O)CC(=O)O
Activity [1]: inhibitor [+] | Activity [2]: inhibitor [+] | Activity [3]: inhibitor [+] | Activity [4]: inhibitor [+]

CC(C)c1c(C(=O)Nc2ccccc2)c(-c2ccccc2)c(-c2ccc(F)cc2)n1CC[C@@H](O)C[C@@H](O)CC(=O)O [ATORVASTATIN]
Activity [5]: inhibitor [+] | Activity [6]: inhibitor [+] | Activity [7]: inhibitor [+] | Activity [8]: inhibitor [+]

CC(C)c1c(C(=O)Nc2ccc(O)cc2)c(-c2ccccc2)c(-c2ccc(F)cc2)n1CC[C@H](O)C[C@H](O)CC(=O)O [BMS241423]
Activity [9]: inhibitor [+] | Activity [10]: inhibitor [+] | Activity [11]: inhibitor [+] | Activity [12]: inhibitor [+]

CC[C@H](C)C(=O)O[C@H]1C[C@@H](C)C=C2C=C[C@H](C)[C@H](CC[C@@H]3C[C@@H](O)CC(=O)O3)[C@H]21 [LOVASTATIN]
Activity [13]: inhibitor [+] | Activity [14]: inhibitor [+] | Activity [15]: inhibitor [+] | Activity [16]: inhibitor [+]

C[C@]12CC[C@H](OS(=O)(=O)O)CC1=CC[C@@H]1[C@@H]2CC[C@]2(C)C(=O)CC[C@@H]12 [PRASTERONE SULFURIC ACID]
Activity [17]: substrate [+] | Activity [18]: inhibitor [+] | Activity [19]: inhibitor [+]

CC[C@H](C)C(=O)O[C@H]1C[C@H](O)C=C2C=C[C@H](C)[C@H](CC[C@@H](O)C[C@@H](O)CC(=O)O)[C@H]21 [PRAVASTATIN]
Activity [20]: is not a substrate [-] | Activity [21]: inhibitor [+] | Activity [22]: is not a substrate [-]

CCC(C)(C)C(=O)O[C@H]1C[C@@H](C)C=C2C=C[C@H](C)[C@H](CC[C@@H]3C[C@@H](O)CC(=O)O3)[C@H]21 [SIMVASTATIN]
Activity [23]: inhibitor [+] | Activity [24]: inhibitor [+]
